Experimental data from patent US8633196B2, “Benzenesulfonamide compounds, method for synthesizing same, and use thereof in medicine as well as in cosmetics” (Galderma Research & Development, priority 2009, dated 2014).
Like-named read-outs stand apart in the source and are kept apart here.

Legend:
TACE enzyme [1] = biological target: T1, TACE enzyme (Homo sapiens (Human), UniProt P78536); experiment: Enzymatic assay for TACE inhibition (fluorescent substrate); format: biochemical
Target sequence in this assay (P78536 215-824 limits assumed): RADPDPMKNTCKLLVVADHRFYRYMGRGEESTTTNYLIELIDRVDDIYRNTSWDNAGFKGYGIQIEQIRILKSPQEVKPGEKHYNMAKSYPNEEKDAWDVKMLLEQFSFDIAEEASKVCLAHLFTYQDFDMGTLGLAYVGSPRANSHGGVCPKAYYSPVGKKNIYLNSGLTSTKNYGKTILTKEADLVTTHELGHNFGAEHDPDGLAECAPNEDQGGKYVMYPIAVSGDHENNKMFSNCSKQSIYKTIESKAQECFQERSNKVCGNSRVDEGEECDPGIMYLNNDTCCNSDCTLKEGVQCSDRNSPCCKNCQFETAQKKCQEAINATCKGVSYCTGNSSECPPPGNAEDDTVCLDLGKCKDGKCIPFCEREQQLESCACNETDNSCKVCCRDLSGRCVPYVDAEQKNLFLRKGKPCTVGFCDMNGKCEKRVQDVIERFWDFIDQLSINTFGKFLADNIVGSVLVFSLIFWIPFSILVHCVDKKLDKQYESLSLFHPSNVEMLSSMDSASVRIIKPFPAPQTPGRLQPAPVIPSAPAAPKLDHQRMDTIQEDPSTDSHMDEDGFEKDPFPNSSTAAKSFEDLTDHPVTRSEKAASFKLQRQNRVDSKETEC

MMP3 = MMP3 (Homo sapiens (Human), UniProt P08254); experiment: Selectivity assay, MMP3; format: biochemical
MMP1 = MMP1 (Homo sapiens (Human), UniProt P03956); experiment: Selectivity assay, MMP1; format: biochemical
ADAM10 = ADAM10 (Homo sapiens (Human), UniProt O14672); experiment: Selectivity assay, ADAM10
ADAM9 = ADAM9 (Homo sapiens (Human), UniProt Q13443); experiment: Selectivity assay, ADAM9; format: biochemical
MMP9 = MMP9 (Homo sapiens (Human), UniProt P14780); experiment: Selectivity assay, MMP9; format: biochemical
TACE enzyme [2] = biological target: T1, TACE enzyme; conditions: WO 00/44709; page 251, table 10, example 61; cited from earlier work
Target sequence in this assay (P78536 whole entry, looked up): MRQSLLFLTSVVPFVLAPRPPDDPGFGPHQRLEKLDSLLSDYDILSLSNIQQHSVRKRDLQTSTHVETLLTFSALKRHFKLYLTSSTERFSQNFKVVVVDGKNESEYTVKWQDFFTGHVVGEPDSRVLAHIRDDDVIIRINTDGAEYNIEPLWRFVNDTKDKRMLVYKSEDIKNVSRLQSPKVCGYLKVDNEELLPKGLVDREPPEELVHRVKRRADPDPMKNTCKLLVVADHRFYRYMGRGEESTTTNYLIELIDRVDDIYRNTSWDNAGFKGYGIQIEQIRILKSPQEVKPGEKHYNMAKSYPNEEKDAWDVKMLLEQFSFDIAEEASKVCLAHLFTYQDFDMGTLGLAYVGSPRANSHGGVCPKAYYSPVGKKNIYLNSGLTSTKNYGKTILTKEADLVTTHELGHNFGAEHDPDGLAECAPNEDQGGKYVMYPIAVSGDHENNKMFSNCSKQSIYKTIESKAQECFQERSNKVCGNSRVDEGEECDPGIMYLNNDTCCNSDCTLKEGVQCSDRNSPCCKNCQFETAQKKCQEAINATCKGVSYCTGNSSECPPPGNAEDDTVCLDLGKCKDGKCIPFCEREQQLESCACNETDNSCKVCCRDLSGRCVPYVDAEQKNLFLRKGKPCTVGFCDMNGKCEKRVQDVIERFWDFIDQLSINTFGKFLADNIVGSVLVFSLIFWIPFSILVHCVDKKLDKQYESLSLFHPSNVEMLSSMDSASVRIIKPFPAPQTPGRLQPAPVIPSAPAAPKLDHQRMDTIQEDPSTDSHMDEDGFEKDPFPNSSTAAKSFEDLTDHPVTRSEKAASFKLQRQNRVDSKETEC

[3] = TACE column of selectivity table, read-out: IC50 (nM) TACE
[4] = enzymatic assay, substrate 40 μM, read-out: IC50-TACE

Sequence of MMP1 (P03956 100-469, species assumed): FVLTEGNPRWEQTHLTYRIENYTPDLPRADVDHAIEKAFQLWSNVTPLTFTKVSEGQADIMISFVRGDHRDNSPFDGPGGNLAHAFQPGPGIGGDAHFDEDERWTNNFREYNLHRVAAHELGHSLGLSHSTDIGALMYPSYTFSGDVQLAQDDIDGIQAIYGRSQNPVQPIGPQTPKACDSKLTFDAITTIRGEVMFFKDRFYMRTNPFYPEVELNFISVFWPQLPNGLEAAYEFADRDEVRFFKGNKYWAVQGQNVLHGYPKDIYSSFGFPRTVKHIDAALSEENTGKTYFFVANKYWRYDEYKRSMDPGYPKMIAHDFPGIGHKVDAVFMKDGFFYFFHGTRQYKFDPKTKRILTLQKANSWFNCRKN
Sequence of ADAM9 (Q13443 29-819, species assumed): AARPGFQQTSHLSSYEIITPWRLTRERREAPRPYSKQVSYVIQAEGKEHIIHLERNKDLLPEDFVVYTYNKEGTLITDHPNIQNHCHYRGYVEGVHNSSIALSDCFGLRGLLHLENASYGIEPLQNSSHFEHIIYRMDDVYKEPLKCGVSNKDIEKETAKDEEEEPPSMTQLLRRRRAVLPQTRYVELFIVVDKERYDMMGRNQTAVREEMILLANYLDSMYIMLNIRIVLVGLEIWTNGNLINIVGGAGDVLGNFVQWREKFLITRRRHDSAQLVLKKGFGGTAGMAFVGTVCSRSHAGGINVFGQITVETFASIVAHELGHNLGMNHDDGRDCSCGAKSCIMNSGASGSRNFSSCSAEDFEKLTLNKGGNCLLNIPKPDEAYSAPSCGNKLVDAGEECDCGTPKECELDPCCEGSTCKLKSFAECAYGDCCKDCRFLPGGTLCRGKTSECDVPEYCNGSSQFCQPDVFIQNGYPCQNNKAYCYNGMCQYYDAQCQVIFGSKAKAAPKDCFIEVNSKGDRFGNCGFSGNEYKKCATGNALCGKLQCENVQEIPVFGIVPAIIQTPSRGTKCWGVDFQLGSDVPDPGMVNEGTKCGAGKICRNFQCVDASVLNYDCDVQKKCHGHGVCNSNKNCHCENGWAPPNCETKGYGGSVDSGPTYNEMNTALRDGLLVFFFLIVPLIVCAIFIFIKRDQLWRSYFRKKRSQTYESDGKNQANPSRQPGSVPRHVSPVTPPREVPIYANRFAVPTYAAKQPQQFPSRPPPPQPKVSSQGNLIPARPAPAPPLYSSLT
Sequence of MMP9 (P14780 94-707, species assumed): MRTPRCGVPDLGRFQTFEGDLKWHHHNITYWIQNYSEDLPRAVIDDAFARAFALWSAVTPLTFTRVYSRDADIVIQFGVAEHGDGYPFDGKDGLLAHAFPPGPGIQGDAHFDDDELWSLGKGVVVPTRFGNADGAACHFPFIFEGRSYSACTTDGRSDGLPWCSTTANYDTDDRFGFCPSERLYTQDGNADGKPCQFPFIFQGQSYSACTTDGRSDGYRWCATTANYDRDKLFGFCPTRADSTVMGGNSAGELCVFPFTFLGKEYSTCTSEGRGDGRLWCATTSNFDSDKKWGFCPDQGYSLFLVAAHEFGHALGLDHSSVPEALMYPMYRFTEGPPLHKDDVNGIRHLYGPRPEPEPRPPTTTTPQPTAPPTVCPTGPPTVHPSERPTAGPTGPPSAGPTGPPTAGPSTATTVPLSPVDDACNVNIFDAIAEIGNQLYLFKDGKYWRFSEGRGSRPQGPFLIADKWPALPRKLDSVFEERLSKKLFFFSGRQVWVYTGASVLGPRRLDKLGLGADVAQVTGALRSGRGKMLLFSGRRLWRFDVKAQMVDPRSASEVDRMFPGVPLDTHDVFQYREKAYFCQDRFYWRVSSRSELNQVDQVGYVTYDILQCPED
Sequence of MMP3 (P08254 100-477, species assumed): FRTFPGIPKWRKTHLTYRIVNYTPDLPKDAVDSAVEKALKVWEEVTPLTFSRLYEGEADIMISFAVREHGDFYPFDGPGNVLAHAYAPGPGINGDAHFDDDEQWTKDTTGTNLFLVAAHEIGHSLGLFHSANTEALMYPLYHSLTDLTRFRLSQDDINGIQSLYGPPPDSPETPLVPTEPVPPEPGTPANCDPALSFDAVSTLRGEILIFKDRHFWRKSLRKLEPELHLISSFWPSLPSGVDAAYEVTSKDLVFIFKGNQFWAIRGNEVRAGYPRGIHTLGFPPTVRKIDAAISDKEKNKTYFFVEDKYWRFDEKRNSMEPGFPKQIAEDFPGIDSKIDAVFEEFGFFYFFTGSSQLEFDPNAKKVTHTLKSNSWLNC
Sequence of ADAM10 (O14672 214-748, species assumed): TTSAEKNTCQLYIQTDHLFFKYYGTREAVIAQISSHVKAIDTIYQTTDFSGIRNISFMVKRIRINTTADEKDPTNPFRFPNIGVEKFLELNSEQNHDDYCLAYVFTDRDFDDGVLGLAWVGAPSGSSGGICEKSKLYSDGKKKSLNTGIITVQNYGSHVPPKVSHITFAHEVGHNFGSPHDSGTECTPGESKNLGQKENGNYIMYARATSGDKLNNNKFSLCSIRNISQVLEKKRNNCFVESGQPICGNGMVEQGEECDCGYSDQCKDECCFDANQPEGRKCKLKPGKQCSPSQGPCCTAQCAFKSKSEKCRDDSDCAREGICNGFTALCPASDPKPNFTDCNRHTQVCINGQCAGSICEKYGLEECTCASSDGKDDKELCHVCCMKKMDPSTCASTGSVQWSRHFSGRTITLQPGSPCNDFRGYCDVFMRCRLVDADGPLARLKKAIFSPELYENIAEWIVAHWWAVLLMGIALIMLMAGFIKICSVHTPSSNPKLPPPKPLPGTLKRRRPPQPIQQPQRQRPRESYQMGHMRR

In the case of `Cc1cc(COc2ccc(S(=O)(=O)NC[C@@H](C(=O)NO)N3CCN(S(C)(=O)=O)CC3)cc2)c2ccccc2n1.Cl` [Example 14, (S)-N-Hydroxy-2-(4-methanesulfonylpiperazin-1-yl)-3-[4-(2-methylquinolin-4-ylmethoxy)benzenesulfonylamino]propionamide hydrochloride], the “% TACE inhibition at 10 μM” value (TACE enzyme [1]) is reported as 98% and the IC50 (TACE enzyme [1]; read-out: IC50-TACE, enzymatic assay, substrate 40 μM, listed as ex14, hydrochloride) is reported as 64 nM.

With `Cc1cc(COc2ccc(S(=O)(=O)NC[C@@H](C(=O)NO)N3CCN(C(=O)OCc4ccccc4)CC3)cc2)c2ccccc2n1` [Example 10, Benzyl 4-{(S)-1-hydroxycarbamoyl-2-[4-(2-methylquinolin-4-ylmethoxy)benzenesulfonylamino]ethyl}piperazine-1-carboxylate] the “% TACE inhibition at 10 μM” value (TACE enzyme [1]) was 93%.

For `Cc1cc(COc2ccc(S(=O)(=O)NC[C@@H](C(=O)NO)N3CCN(S(=O)(=O)C(C)C)CC3)cc2)c2ccccc2n1` [Example 26, (S)-N-hydroxy-3-[4-(2-methylquinolin-4-ylmethoxy)benzenesulfonylamino]-2-[4-(propane-2-sulfonyl)piperazin-1-yl]propionamide], the IC50 (MMP3) was 574 nM, the IC50 (MMP1) was 969 nM and the IC50 (TACE enzyme [1]; [3]) was 16 nM. For the same compound, the “% TACE inhibition at 10 μM” value (TACE enzyme [1]) was 98% and the IC50 (TACE enzyme [1]; [4]) was 33 nM.

In the case of `CS(=O)(=O)N1CCN([C@@H](CNS(=O)(=O)c2ccc(OCc3cccc4ccccc34)cc2)C(=O)NO)CC1` [Example 6, (S)-N-Hydroxy-2-(4-methanesulfonylpiperazin-1-yl)-3-[4-(naphthalen-1-ylmethoxy)benzenesulfonylamino]propionamide], the “% TACE inhibition at 10 μM” value (TACE enzyme [1]) is reported as 99% and the IC50 (TACE enzyme [1]; [4]) is reported as 52 nM.

Compound `Cc1ccc(CN2CCN([C@@H](CNS(=O)(=O)c3ccc(OCc4cc(C)nc5ccccc45)cc3)C(=O)NO)CC2)cc1` [Example 21, (S)-N-hydroxy-2-[4-(4-methylbenzyl)piperazin-1-yl]-3-[4-(2-methylquinolin-4-ylmethoxy)benzenesulfonylamino]propionamide] has an IC50 (MMP3) of 887 nM, an IC50 (MMP1) of 1170 nM and an IC50 (TACE enzyme [1]; [3]) of 63 nM. The “% TACE inhibition at 10 μM” value (TACE enzyme [1]) was 97% and the IC50 (TACE enzyme [1]; [4]) was 63 nM.

With `CC#CCOc1ccc(S(=O)(=O)NC[C@@H](C(=O)NO)N2CCN(S(C)(=O)=O)CC2)cc1` [Example 2, (S)-3-(4-but-2-ynyloxybenzenesulfonylamino)-N-hydroxy-2-(4-methanesulfonylpiperazin-1-yl)propionamide] the “% TACE inhibition at 10 μM” value (TACE enzyme [1]) was 100% and the IC50 (TACE enzyme [1]; [4]) was 32 nM.

For `Cc1cc(COc2ccc(S(=O)(=O)NC[C@@H](C(=O)NO)N3CCN(Cc4ccc(C(F)(F)F)cc4)CC3)cc2)c2ccccc2n1` [Example 20, (S)-N-Hydroxy-3-[4-(2-methylquinolin-4-ylmethoxy)benzenesulfonylamino]-2-[4-(4-trifluoromethylbenzyl)piperazin-1-yl]propionamide], the IC50 (MMP3) was 4780 nM, the IC50 (MMP1) was 3940 nM and the IC50 (ADAM10) was > 10000 nM. For the same compound, the IC50 (ADAM9) was > 10000 nM and the IC50 (MMP9) was > 10000 nM.

For `Cc1cc(COc2ccc(S(=O)(=O)NC[C@@H](C(=O)NO)N3CCNCC3)cc2)c2ccccc2n1` [Example 13, (S)-N-Hydroxy-3-[4-(2-methylquinolin-4-ylmethoxy)benzenesulfonylamino]-2-piperazin-1-ylpropionamide], the “% TACE inhibition at 10 μM” value (TACE enzyme [1]) was 96% and the IC50 (TACE enzyme [1]; [4]) was 108 nM.

In the case of `CS(=O)(=O)N1CCN([C@@H](CNS(=O)(=O)c2ccc(OCc3cccc(C#N)c3)cc2)C(=O)NO)CC1` [Example 8, (S)-3-[4-(3-Cyanobenzyloxy)benzenesulfonylamino]-N-hydroxy-2-(4-methanesulfonylpiperazin-1-yl)propionamide], the “% TACE inhibition at 10 μM” value (TACE enzyme [1]) is reported as 100% and the IC50 (TACE enzyme [1]; [4]) is reported as 127 nM.

With `CS(=O)(=O)N1CCN([C@@H](CNS(=O)(=O)c2ccc(OCc3ccc(C#N)cc3)cc2)C(=O)NO)CC1` [Example 9, (S)-3-[4-(4-Cyanobenzyloxy)benzenesulfonylamino]-N-hydroxy-2-(4-methanesulfonylpiperazin-1-yl)propionamide] the “% TACE inhibition at 10 μM” value (TACE enzyme [1]) was 100% and the IC50 (TACE enzyme [1]; [4]) was 147 nM.

For `Cc1cc(COc2ccc(S(=O)(=O)NC[C@@H](C(=O)NO)N3CCN(Cc4ccccc4)CC3)cc2)c2ccccc2n1` [Example 17, (S)-2-(4-Benzylpiperazin-1-yl)-N-hydroxy-3-[4-(2-methylquinolin-4-ylmethoxy)benzenesulfonylamino]propionamide], the “% TACE inhibition at 10 μM” value (TACE enzyme [1]) was 91% and the IC50 (TACE enzyme [1]; [4]) was 62 nM.

Work on `CCN1CCN([C@@H](CNS(=O)(=O)c2ccc(OCc3cc(C)nc4ccccc34)cc2)C(=O)NO)CC1` [Example 19, (S)-2-(4-ethyl-piperazin-1-yl)-N-hydroxy-3-[4-(2-methylquinolin-4-yl-methoxy)benzenesulfonylamino]propionamide] yielded an IC50 (MMP3) of 1770 nM, an IC50 (MMP1) of 2300 nM and an IC50 (TACE enzyme [1]; [3]) of 41 nM. The “% TACE inhibition at 10 μM” value (TACE enzyme [1]) was 92%, the IC50 (TACE enzyme [1]; [4]) was 41 nM and the IC50 (ADAM10) was > 10000 nM. For the same compound, the IC50 (ADAM9) was 3050 nM and the IC50 (MMP9) was > 10000 nM.

Compound `CC1(C)SCCN(S(=O)(=O)c2ccc(OCC#CCO)cc2)[C@H]1C(=O)NO` [Apratastat, reference compound] has an IC50 (MMP3) of 10 nM, an IC50 (MMP1) of 145 nM and an IC50 (TACE enzyme [1]; read-out: IC50 (nM) TACE, TACE column of selectivity table) of 5 nM. The IC50 (ADAM10) was 71 nM, the “selectivity for the TACE enzyme compared with certain MMPs” value (TACE enzyme [2]) was “not selective” and the IC50 (ADAM9) was 85 nM. For the same compound, the IC50 (MMP9) was 82 nM.

With `Cc1cc(COc2ccc(S(=O)(=O)NC[C@@H](C(=O)NO)N3CCN(C(=O)C(C)C)CC3)cc2)c2ccccc2n1` [Example 23, (S)-N-hydroxy-2-(4-isobutyrylpiperazin-1-yl)-3-[4-(2-methylquinolin-4-ylmethoxy)-benzenesulfonylamino]propionamide] the IC50 (MMP3) was 1060 nM, the IC50 (MMP1) was 2220 nM and the IC50 (TACE enzyme [1]; [3]) was 53 nM. For the same compound, the “% TACE inhibition at 10 μM” value (TACE enzyme [1]) was 97% and the IC50 (TACE enzyme [1]; [4]) was 53 nM.

For `CS(=O)(=O)N1CCN([C@@H](CNS(=O)(=O)c2ccc(OCc3ccnc4ccccc34)cc2)C(=O)NO)CC1` [Example 16, (S)-N-Hydroxy-2-(4-methanesulfonylpiperazin-1-yl)-3-[4-(quinolin-4-ylmethoxy)benzenesulfonylamino]propionamide], the “% TACE inhibition at 10 μM” value (TACE enzyme [1]) was 96% and the IC50 (TACE enzyme [1]; [4]) was 168 nM.

For `Cc1cc(COc2ccc(S(=O)(=O)NC[C@@H](C(=O)NO)N3CCN(Cc4ccc(F)cc4)CC3)cc2)c2ccccc2n1` [Example 18, (S)-2-[4-(4-Fluorobenzyl)piperazin-1-yl]-N-hydroxy-3-[4-(2-methylquinolin-4-ylmethoxy)benzenesulfonylamino]propionamide], the IC50 (MMP3) was 849 nM, the IC50 (MMP1) was 670 nM and the IC50 (TACE enzyme [1]; [3]) was 67 nM. The “% TACE inhibition at 10 μM” value (TACE enzyme [1]) was 90%, the IC50 (TACE enzyme [1]; [4]) was 67 nM and the IC50 (ADAM10) was > 10000 nM. The IC50 (ADAM9) was 9250 nM and the IC50 (MMP9) was > 10000 nM.

With `CS(=O)(=O)N1CCN([C@@H](CNS(=O)(=O)c2ccc(OCc3ccnc(-c4ccccc4)c3)cc2)C(=O)NO)CC1` [Example 11, (S)-N-Hydroxy-2-(4-methanesulfonylpiperazin-1-yl)-3-[4-(2-phenylpyridin-4-ylmethoxy)benzenesulfonylamino]propionamide] the “% TACE inhibition at 10 μM” value (TACE enzyme [1]) was 93% and the IC50 (TACE enzyme [1]; [4]) was 24 nM.

`Cc1cc(COc2ccc(S(=O)(=O)NC[C@@H](C(=O)NO)N3CCN(S(C)(=O)=O)CC3)cc2)c2ccccc2n1` [Example 5, (S)-N-Hydroxy-2-(4-methanesulfonylpiperazin-1-yl)-3-[4-(2-methylquinolin-4-ylmethoxy)benzenesulfonylamino]propionamide] showed an IC50 (MMP3) of 3200 nM, an IC50 (MMP1) of 5100 nM and an IC50 (TACE enzyme [1]; [3]) of 21 nM. The “% TACE inhibition at 10 μM” value (TACE enzyme [1]) was 99% and the IC50 (TACE enzyme [1]; [4]) was 21 nM.

`Cc1cc(COc2ccc(S(=O)(=O)NC[C@@H](C(=O)NO)N3CCN(S(=O)(=O)CC(C)C)CC3)cc2)c2ccccc2n1` [Example 24, (S)-N-hydroxy-2-[4-(2-methylpropane-1-sulfonyl)piperazin-1-yl]-3-[4-(2-methylquinolin-4-ylmethoxy)benzenesulfonylamino]propionamide] showed an IC50 (MMP3) of 1880 nM and an IC50 (MMP1) of 2060 nM.
